Like-named read-outs stand apart in the source and are kept apart here.
Assays:
[1] = tested on: Colon 12 tumor initiating cells; experiment: Tumor-initiating cell growth inhibition, Alamar Blue assay, colon TICs; type: cell-based; settings: 216 h; Colon 12 TICs, 9 days; read-out: Tumor Initiating Cell GI50 Range Colon 12
Excerpt: (§1) Non-tissue or tissue cultured treated T-75 flask and 96-well plates were purchased from VWR. Vitamin B-27 supplement, MEM NEAA (minimum essential medium non essential amino acids), sodium pyruvate, L-glutamine, N2 supplement, penicillin-streptomycin and fungizone/amphotericin B were obtained from Invitrogen. Lipid mixture, heparin and EGF were purchased from Sigma; bFGF from BD Biosciences. Tumor Initiating Cells (TICs) from colon were routinely maintained using non-tissue cultured treated T-75 flasks in DMEM:F12 medium containing 0.2XB-27 supplement, 4 ug/ml heparin, 1×MEM NEAA, 1×sodium pyruvate, 1 mM glutamine, 10 pg/ul bFGF, 20 pg/ul EGF, 1× N2 supplement, lipid mixture, penicillin-streptomycin and fungizone/amphotericin B. Ovarian TICs were routinely maintained using tissue cultured treated T-75 flasks in DMEM:F12 medium containing IXB-27 supplement, 4 ug/ml heparin, 20 pg/ul bFGF, 20 pg/ul EGF and penicillin-streptomycin.
(§2) Compounds described herein were dissolved in DMSO and further diluted in cell culture medium for GI50 determination. Colon TICs were trypsinized and seeded into non-tissue cultured treated 96-well plates with 4,000 cells/well. After 24 h, compound was added into the cell culture at different concentrations, and the final concentration of DMSO was adjusted to 0.1%. Cells were then cultured at 37° C. for 9 days. Ovarian TICs were trypsinized and seeded into tissue cultured treated 96-well plates with 1,000 cells/well. After 24 h, compound was added into the cell culture at different concentrations, and the final concentration of DMSO was adjusted to 0.1%. Cells were then cultured at 37° C. for 6 days. Cell viability was assessed by Alamar Blue assay: 10 ul of Alamar Blue was added into each well. After 4 hours incubation at 37° C., fluorescence was recorded at excitation 544 and emission 590. GI50 (Growth inhibition) was calculated using GraphPad Prism 4.0 software.
(§3) In Table 1 below, GI50 value ranges for compound examples against TICs (Colon 12 and Ovarian 2393A) are given.

[2] = tested on: Ovarian 2393A tumor initiating cells; experiment: Tumor-initiating cell growth inhibition, Alamar Blue assay, ovarian TICs; type: cell-based; settings: 144 h; Ovarian 2393A TICs, 6 days; read-out: Tumor Initiating Cell GI50 Range Ovarian 2393A
Excerpt: as §1, §2, §3

[3] = tested on: breast cancer cells (MDA-MB-468); experiment: Cancer cell line growth inhibition, Sulforhodamine B assay, MDA-MB-468; type: cell-based; settings: read-out: Cancer Cell Line GI50 Range MDA-MB-468
Method in brief: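 MDA-MB-468 cells exposed 5 days to compound at final 10 nM to 50 μM in DMEM with 10% FBS. Growth measured by sulforhodamine B protein staining after TCA fixation, absorbance 570 nm; inhibition relative to DMSO-only cells, GI50 determined for cytotoxic compounds.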

[4] = tested on: colon cancer cells (HCT116); experiment: Cancer cell line growth inhibition, Sulforhodamine B assay, HCT116; type: cell-based; settings: read-out: Cancer Cell Line GI50 Range HCT116
Method in brief: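 HCT116 cells, 1000–4000 per well, seeded 24 h ahead, then treated 5 days with compound at 10 nM to 50 μM final in DMEM with 10% FBS. Growth measured by sulforhodamine B staining after TCA fixation, A570; GI50 from inhibition relative to DMSO-only cells.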

human TTK = target: T1, human TTK (Homo sapiens, UniProt P33981); experiment: TTK inhibition assay (indirect ELISA); type: biochemical
T1 construct: Active TTK was purchased from Invitrogen as an amino terminal GST fusion of full length human TTK; purchased Invitrogen
T1 sequence (P33981 1-857): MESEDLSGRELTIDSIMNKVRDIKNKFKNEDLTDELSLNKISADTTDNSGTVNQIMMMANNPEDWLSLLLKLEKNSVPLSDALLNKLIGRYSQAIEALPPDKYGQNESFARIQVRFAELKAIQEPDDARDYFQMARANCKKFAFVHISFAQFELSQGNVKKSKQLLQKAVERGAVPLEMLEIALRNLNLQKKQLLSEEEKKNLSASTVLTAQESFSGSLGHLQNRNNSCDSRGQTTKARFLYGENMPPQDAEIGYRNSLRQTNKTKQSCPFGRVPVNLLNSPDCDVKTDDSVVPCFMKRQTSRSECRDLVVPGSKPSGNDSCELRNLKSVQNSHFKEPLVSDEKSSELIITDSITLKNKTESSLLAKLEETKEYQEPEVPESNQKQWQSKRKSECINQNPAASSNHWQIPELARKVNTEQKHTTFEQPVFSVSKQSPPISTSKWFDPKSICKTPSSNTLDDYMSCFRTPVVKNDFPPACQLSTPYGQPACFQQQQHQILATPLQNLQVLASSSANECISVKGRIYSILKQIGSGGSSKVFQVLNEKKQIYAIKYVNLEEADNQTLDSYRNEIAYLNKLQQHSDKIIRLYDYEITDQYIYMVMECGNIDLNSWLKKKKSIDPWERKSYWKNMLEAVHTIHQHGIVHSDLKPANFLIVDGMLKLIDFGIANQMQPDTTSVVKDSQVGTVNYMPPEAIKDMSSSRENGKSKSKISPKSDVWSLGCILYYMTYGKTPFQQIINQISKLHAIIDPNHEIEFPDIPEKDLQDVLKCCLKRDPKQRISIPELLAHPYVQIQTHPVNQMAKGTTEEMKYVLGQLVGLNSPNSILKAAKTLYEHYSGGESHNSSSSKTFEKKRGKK
Method in brief: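 Activity detected by indirect ELISA after compounds sat with full-length GST-TTK for 5 min prior to starting the reaction with ATP. IC50 came from a four-parameter logistic curve of % inhibition, calculated against background and uninhibited control wells.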

[5] = tested on: ovarian cancer cells (OVCAR-3); experiment: Cancer cell line growth inhibition, Sulforhodamine B assay, OVCAR-3; type: cell-based; settings: read-out: Cancer Cell Line GI50 Range OVCAR-3
Method in brief: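 OVCAR-3 cells were seeded 24 h before compound addition, then exposed for 5 days to final concentrations of 10 nM to 50 μM in DMEM with 10% FBS. Growth was measured by TCA fixation and sulforhodamine B staining with absorbance at 570 nm. Inhibition was relative to DMSO-only cells, and GI50 came from curve fitting.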

[6] = Homo sapiens, MDA-MB-468, MDA-MB-468 breast cancer cell line
[7] = Homo sapiens, HCT-116, HCT116 colon cancer cell line
[8] = 100 μM ATP, read-out: TTK IC50 Range
[9] = Homo sapiens, OVCAR-3, OVCAR-3 ovarian cancer cell line
[10] = 16 μM ATP (Sigma cat# A7699), read-out: TTK IC50 Range (denoted with an asterisk)

Compound	GI50 [1] [nM]	GI50 [2] [nM]	GI50 [3, 6] [nM]	GI50 [4, 7] [nM]	IC50 (human TTK; [8]) [nM]	GI50 [5, 9] [nM]	IC50 (human TTK; [10]) [nM]	GI50 ([3]; MDA-MB-468 breast cancer cell line) [nM]	GI50 ([4]; HCT116 colon cancer cell line) [nM]	GI50 ([5]; OVCAR-3 ovarian cancer cell line) [nM]
Cc1cc(-c2cnn3c(NC[C@H]4C[C@H](O)C4)cc(NC4CCOCC4)nc23)ccc1C(=O)NC1CC1 [Example C145]	100 to 500	100 to 500	100 to 500	100 to 500	< 100	100 to 500	–	–	–	–
Cc1cc(-c2cnn3c(NC[C@H]4CC[C@@H](O)CC4)nc(Oc4cccc(F)c4)nc23)ccc1C(=O)NC1CC1 [Example C24]	≤ 100	≤ 100	≤ 100	≤ 100	–	≤ 100	< 100	–	–	–
Cc1cc(-c2cnn3c(NCC4CCOCC4)cc(N[C@H](CO)C4CCCC4)nc23)ccc1C(=O)NC1CC1 [Example C165]	≤ 100	100 to 500	100 to 500	≤ 100	< 100	100 to 500	–	–	–	–
Cc1cc(-c2cnn3c(NCC4CCOCC4)cc(N[C@@H]4CCCOC4)nc23)ccc1C(=O)NC1CC1 [Example C82]	–	–	100 to 500	100 to 500	< 100	100 to 500	–	–	–	–
Cc1cc(-c2cnn3c(NCC4CCOCC4)cc(N(C)C4CCCC4)nc23)ccc1C(=O)NC1CC1 [Example C58]	–	–	100 to 500	≤ 100	< 100	100 to 500	–	–	–	–
Cc1cc(-c2cnn3c(NC[C@H]4C[C@H](O)C4)cc(NC4CCCC4)nc23)ccc1C(=O)NC1CC1 [Example C172]	–	–	≤ 100	≤ 100	< 100	≤ 100	–	–	–	–
Cc1cc(-c2cnn3c(NCCN4CCOCC4)cc(Oc4ccc(F)cc4)nc23)ccc1C(=O)NC1CC1 [Example C181]	–	–	100 to 500	≤ 100	< 100	100 to 500	–	–	–	–
Cc1cc(-c2cnn3c(NCCN4CCOCC4)cc(Oc4cccnc4)nc23)ccc1C(=O)NC1CC1 [Example C51]	–	–	100 to 500	100 to 500	< 100	100 to 500	–	–	–	–
Cc1cc(-c2cnn3c(NCC4(F)CCN(C)CC4)cc(Oc4cccnc4)nc23)ccc1C(=O)NC1CC1 [Example C147]	–	–	100 to 500	100 to 500	< 100	> 500	–	–	–	–
O=C(NC1CC1)c1ccc(-c2cnn3c(NCCN4CCOCC4)cc(Oc4ccccc4)nc23)cc1Cl [Example C105]	–	–	≤ 100	≤ 100	< 100	≤ 100	–	–	–	–
Cc1cc(-c2cnn3c(NCC4CCOCC4)cc(NCC4CC4)nc23)ccc1C(=O)NC1CC1 [Example C103]	–	–	100 to 500	≤ 100	< 100	100 to 500	–	–	–	–
Cc1cc(-c2cnn3c(NCC(C)C)cc(N[C@H](CO)C(C)C)nc23)ccc1C(=O)NC1CC1 [Example C158]	–	–	100 to 500	≤ 100	< 100	100 to 500	–	–	–	–
Cc1cc(-c2cnn3c(NCC4CCOCC4)cc(NCc4cccnc4)nc23)ccc1C(=O)NC1CC1 [Example C74]	–	–	100 to 500	100 to 500	< 100	> 500	–	–	–	–
Cc1cc(-c2cnn3c(NC[C@H]4C[C@@H](O)C4)cc(Oc4cccnc4)nc23)ccc1C(=O)NC1CC1 [Example C159]	–	–	≤ 100	≤ 100	< 100	≤ 100	–	–	–	–
Cc1cc(-c2cnn3c(NCC4CCOCC4)nc(NC4CCOCC4)nc23)ccc1C(=O)NC1CC1 [Example C23]	–	–	> 500	100 to 500	–	> 500	< 100	–	–	–
Cc1cc(-c2cnn3c(NCC4CCOCC4)cc(NCC4(CO)CC4)nc23)ccc1C(=O)NC1CC1 [Example C113]	–	–	100 to 500	100 to 500	< 100	100 to 500	–	–	–	–
Cc1cc(-c2cnn3c(NCC4CCOCC4)cc(N[C@H]4CCC[C@@H]4O)nc23)ccc1C(=O)NC1CC1 [Example C126]	–	–	–	–	< 100	–	–	≤ 100	≤ 100	≤ 100
Cc1cc(-c2cnn3c(NCCN4CCOCC4)nc(Oc4cccc(F)c4)nc23)ccc1C(=O)NC1CC1 [Example C27]	–	–	100 to 500	≤ 100	–	100 to 500	< 100	–	–	–
COCCNc1nc(OC2CCCC2)nc2c(-c3ccc(C(=O)NC4CC4)cc3)cnn12 [Example C8]	–	–	100 to 500	100 to 500	–	100 to 500	< 100	–	–	–
Cc1cc(-c2cnn3c(NCCN4CCC(F)CC4)cc(Oc4cccc(F)c4F)nc23)ccc1C(=O)NC1CC1 [Example C47, N-cyclopropyl-4-(5-(2,3-difluorophenoxy)-7-((2-(4-fluoropiperidin-1-yl)ethyl)amino)pyrazolo[1,5-a]pyrimidin-3-yl)-2-methylbenzamide]	–	–	≤ 100	≤ 100	< 100	≤ 100	–	–	–	–
